This note sets out measurements from patent US10092613B2 (NATUREX, S.A., priority 2008, dated 2018).

SMILES strings stand for the structures. Values joined by “and” are separate entries in the source; they are usually repeats but may differ in a detail not shown here. Equal entries are not always repeated. Where two headings read alike, the source gives them in different places.

Data set [1] concerns the target T1, hepatic Glc-6-Pase system (Homo sapiens, UniProt O43826).
T1 construct: Glc-6-Pase hydrolysis in intact human liver microsomes; tissue BD Biosciences; host or cells: pooled human liver microsomes, intact
T1 sequence (O43826 1-429): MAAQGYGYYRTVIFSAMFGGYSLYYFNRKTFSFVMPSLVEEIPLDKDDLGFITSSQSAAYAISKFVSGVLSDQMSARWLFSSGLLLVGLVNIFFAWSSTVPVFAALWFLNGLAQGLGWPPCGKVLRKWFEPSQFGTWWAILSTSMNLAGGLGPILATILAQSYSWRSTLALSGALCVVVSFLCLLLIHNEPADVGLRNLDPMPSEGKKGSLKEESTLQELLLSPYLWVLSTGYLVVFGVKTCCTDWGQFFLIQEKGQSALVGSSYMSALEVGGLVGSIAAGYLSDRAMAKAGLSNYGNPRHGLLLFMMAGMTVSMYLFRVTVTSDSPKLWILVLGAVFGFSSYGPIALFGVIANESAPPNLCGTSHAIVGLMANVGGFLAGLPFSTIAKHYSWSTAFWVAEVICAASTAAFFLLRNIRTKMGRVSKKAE
Put plainly: Glc-6-Pase hydrolysis in intact human liver microsomes (phosphate release). The settings on record: for Percentage inhibition of G6Pase: each compound at its naturally occurring concentration in 0.6 mM extract, 2 mM substrate; for Contribution to Glc-6-Pase system inhibition by the green coffee extract: inhibition of compound divided by inhibition of 0.6 mM total CGAs from the extract. In kind it is biochemical. On the procedure:
A secondary purpose of Example 8 was to determine the inhibitory effects of a series of structurally-related compounds in the extract, such as caffeoylquinic acids and caffeoylferuloylquinic acids. Example 8 tested whether the extract could inhibit the hepatic Glc-6-Pase system by measuring enzymatic activity in human liver microsomes. These experiments were conducted with or without the extract at final CGA concentrations of 0.2, 0.4 and 0.6 mM. The effect of the extract on Glc-6-Pase activity was tested as a function of […] substrate concentration (2-10 mM).
Measurement of Glc-6-Pase Activity in Microsomes: Microsomal Glc-6-Pase activity was measured on the basis of the rate of release of phosphate under the assay conditions that were described by Wallert et al., Kinetic analysis of glucose-6-phosphatase: an investigative approach to carbohydrate metabolism and kinetics. Biochem. Mol. Biol. Educ. 2001, 29, 199-203. The enzyme assays were performed at 37° C. in a final volume of […] containing 100 mM cacodylic acid, pH 6.5 and concentrations of the substrate […] ranging from 2 to 10 mM.
The reaction was started by adding intact microsomes and was stopped with the addition of 3.2 mL of colorimetric reagent [9 volumes of molybdate (0.42% ammonium molybdate in 1 N H2SO4), 2 volumes of 5% SDS and 1 volume of 10% ascorbic acid, freshly prepared and stored on ice for a maximum of 6 h]. All samples were incubated for 30 minutes at 45° C., and the absorbance of the phosphate-molybdate complex was measured at 820 nm.
Microsomal intactness was quantified by measuring Man-6-Pase activity. Anion, W J. Measurement of intactness of rat liver endoplasmic reticulum. Methods Enzymol. 1989, 174, 58-67. In a preliminary study, Glc-6-Pase activity in intact human liver microsomes was determined on the basis of microsomal protein concentration and incubation time to obtain optimal experimental conditions, that is, 100 μg of microsomal proteins and 5 minutes of incubation (data not shown). Quantification was performed at optimal wavelengths (330 nm) for the CGAs during chromatographic separation. Samples were filtered (0.45 μm), and 2 μL was injected directly. The standard deviation for three analyses of the same sample was <5% for all compounds.
Preparation of Test Compounds: Stock solutions of test compounds were prepared in ultrapure water (pH 6.5) and diluted with assay reagent to the final concentrations.
Enzymatic activity was expressed as micromoles of phosphate released per minute per milligram of protein. Results were expressed as means±standard deviation (SD) of three independent experiments. Percentage of inhibition of Glc-6 Pase system activity was calculated by dividing the initial rate of reaction in microsomes that were treated with individual compounds by the initial rate of reaction in untreated microsomes. […] Statistical analysis was performed using an ANOVA test followed by a post hoc Tukey test under a normality assumption (Shapiro Wilk) or Kruskall Wallis nonparametric test followed by Bonferroni adjusted Mann-Whitney test otherwise; p<0.05 was considered to be significant. […]

Data set [2] is described as follows: Plasma pharmacokinetics of CGA and metabolites after 400 mg green coffee extract, ten volunteers. In kind it is in vivo, human. The settings on record: for Cmax / AUC / Tmax: plasma, 400 mg green coffee extract oral, mean ± SD, n = 10; for molar ratio 3,5-diCQA:4,5-diCQA:3,4-diCQA in plasma / molar ratio 5-CQA:4-CQA:3-CQA in plasma: ratios of AUC in plasma; for contribution to AUC of total phenolic compounds in plasma: mean values of plasma AUC; for contribution to total phenolics in plasma: after green coffee extract consumption. The text has this: In a further phase of the study, ten non-smoker volunteers (22-55 y), five male and five female, were recruited. […] They were asked to eat only animal foods, refined cereal foods and artificial beverages. […] Blood samples were collected into heparin-containing tubes. Baseline blood aliquots were used to determine hematocrit and hemoglobin levels by standard methods. Plasma samples were obtained by centrifugation of the blood samples immediately after being drawn. Urine samples were also collected at baseline interval (minus 2-0 h) and at intervals of 0-2 h; 2-4 h; 4-6 h and 6-8 h after coffee consumption into appropriate plastic containers. Total urine volume was measured for each collection period. Plasma and urine aliquots for determination of CGA were acidified with HCl and kept frozen in liquid nitrogen until analyses. Urine aliquots for determination of creatinine were acidified with HCl and kept at −20° C. until analyses.
(§1) Results of CGA and phenolic acids in urine were normalized by creatinine excretion.

Data set [3] is described as follows: Urinary excretion of CGA and metabolites after 400 mg green coffee extract, ten volunteers. In kind it is in vivo, human. On the procedure:
In a further phase of the study, ten non-smoker volunteers (22-55 y), five male and five female, were recruited. Subjects were instructed to avoid consumption of phenolic-containing foods during the 48 h prior to the study. They were asked to eat only animal foods, refined cereal foods and artificial beverages. On the day of the study, after 10-12 h overnight fasting, an I.V. catheter was inserted into the antecubital vein and a baseline heparinized blood sample was obtained. […] Blood samples were collected into heparin-containing tubes. Baseline blood aliquots were used to determine hematocrit and hemoglobin levels by standard methods. Plasma samples were obtained by centrifugation of the blood samples immediately after being drawn. Urine samples were also collected at baseline interval (minus 2-0 h) and at intervals of 0-2 h; 2-4 h; 4-6 h and 6-8 h after coffee consumption into appropriate plastic containers. Total urine volume was measured for each collection period. Plasma and urine aliquots for determination of CGA were acidified with HCl and kept frozen in liquid nitrogen until analyses. Urine aliquots for determination of creatinine were acidified with HCl and kept at −20° C. until analyses.
as §1

[4] abbreviates: both sexes, human, po, 400 mg, read-out: AUC.
Where [5] appears, read: both sexes, human, po, 400 mg, read-out: Tmax.

Turning to `O=C(C=Cc1ccc(O)c(O)c1)OC1CC(O)(C(=O)O)CC(O)C1OC(=O)C=Cc1ccc(O)c(O)c1` (stereo not drawn) [3,4-diCQA, 3,4-dicaffeoylquinic acid], in data set [1], the “Percentage inhibition of G6Pase” value was 6.9 ± 4.3% and the “Contribution to Glc-6-Pase system inhibition by the green coffee extract” value was determined as 19%. Besides, in data set [2] (both sexes, human, po, 400 mg), the highest concentration (Cmax) (usually the highest concentration seen after dosing) came to 1500 ± 1600 nM. The exposure (AUC) (usually the area under the concentration-time curve, a measure of exposure) in data set [2] (setting [4]) turned out to be 5 ± 4.9 µM·h. The Tmax (commonly the time from dosing to the highest level) in data set [2] (setting [5]) was 2.6 ± 1.8 h. For the same molecule, in data set [2], the “molar ratio 3,5-diCQA:4,5-diCQA:3,4-diCQA in plasma” value was found to be 1.0.

`O=C(C=Cc1ccc(O)c(O)c1)OC1CC(O)(C(=O)O)CC(OC(=O)C=Cc2ccc(O)c(O)c2)C1O` (stereo not drawn) [3,5-diCQA, 3,5-dicaffeoylquinic acid]: the “Contribution to Glc-6-Pase system inhibition by the green coffee extract” value in data set [1] came out at 0%. Besides, the maximum concentration (Cmax) in data set [2] (both sexes, human, po, 400 mg) turned out to be 2700 ± 2700 nM. The AUC in data set [2] (setting [4]) amounted to 8.7 ± 8.3 µM·h. For the same molecule, the Tmax in data set [2] (setting [5]) was 3.2 ± 2.5 h. Moreover, the “molar ratio 3,5-diCQA:4,5-diCQA:3,4-diCQA in plasma” value in data set [2] is on record as 1.7.

As for `O=C(C=Cc1ccc(O)c(O)c1)OC1CC(O)(C(=O)O)CC(O)C1O` (stereo not drawn) [3-CQA, 3-caffeoylquinic acid], in data set [1], the “Contribution to Glc-6-Pase system inhibition by the green coffee extract” value turned out to be 0%. In data set [2], the “contribution to AUC of total phenolic compounds in plasma” value stood at 5.2%, the AUC is 3.0 ± 4.5 µM·h, the Cmax stood at 900 ± 1400 nM and the “molar ratio 5-CQA:4-CQA:3-CQA in plasma” value is on record as 1.0.

For `O=C(C=Cc1ccc(O)c(O)c1)OC1CC(O)(C(=O)O)CC(O)C1OC(=O)C=Cc1ccc(O)c(O)c1` (stereo not drawn) [4,5-diCQA, 4,5-dicaffeoylquinic acid], in data set [1], the “Percentage inhibition of G6Pase” value is 13% and 12.8 ± 2.6%; the “Contribution to Glc-6-Pase system inhibition by the green coffee extract” value turned out to be 35%. Besides, in data set [2], the AUC was 6.8 ± 5.7 µM·h, the Cmax turned out to be 2500 ± 3000 nM, the time to peak (Tmax) amounted to 3.3 ± 2.5 h and the “molar ratio 3,5-diCQA:4,5-diCQA:3,4-diCQA in plasma” value is listed as 1.4.

In the case of `O=C(C=Cc1ccc(O)c(O)c1)OC1C(O)CC(O)(C(=O)O)CC1O` (stereo not drawn) [4-CQA, 4-caffeoylquinic acid], in data set [1], the “Percentage inhibition of G6Pase” value was 14% and 14.4 ± 1.2%; the “Contribution to Glc-6-Pase system inhibition by the green coffee extract” value is 40%. Moreover, the Cmax in data set [2] (both sexes, human, po, 400 mg) was found to be 1400 ± 1100 nM. For the same molecule, the AUC in data set [2] (setting [4]) turned out to be 4.3 ± 5.4 µM·h. The Tmax in data set [2] (setting [5]) turned out to be 3.6 ± 2.2 h. Also, in data set [2], the “contribution to AUC of total phenolic compounds in plasma” value was determined as 7.5% and the “molar ratio 5-CQA:4-CQA:3-CQA in plasma” value is 1.4. In addition, the total urinary excretion in data set [3] (human, in vivo) was 0.04 µmol.

In the case of `O=C(O)/C=C/c1ccc(O)c(O)c1` [Caffeic acid], the “contribution to total phenolics in plasma” value in data set [2] is listed as 6.6%. Besides, the Cmax in data set [2] (both sexes, human, po, 400 mg) stood at 1100 ± 900 nM. Moreover, the AUC in data set [2] (setting [4]) was found to be 3.8 ± 3.2 µM·h. The Tmax in data set [2] (setting [5]) stood at 3.6 ± 2.1 h.

On to `COc1cc(/C=C/C(=O)O)ccc1O` [Ferulic acid], for which, in data set [2], the “contribution to total phenolics in plasma” value worked out at 6.2%. Further, in data set [2] (both sexes, human, po, 400 mg), the Cmax is 800 ± 300 nM. The AUC in data set [2] (setting [4]) was determined as 3.6 ± 1.5 µM·h. Further, in data set [2] (setting [5]), the Tmax turned out to be 2.9 ± 1.8 h.

Regarding `O=C(O)c1cc(O)c(O)c(O)c1` [Gallic Acid], the total urinary excretion stood at 43.47 µmol in data set [3] (subject 1, 0-8 h after consumption); 9.24 µmol in data set [3] (subject 1, Baseline); 18.67 µmol in data set [3] (subject 2, 0-8 h after consumption); 3.55 µmol in data set [3] (subject 2, Baseline); 9.41 µmol in data set [3] (subject 3, 0-8 h after consumption); 1.86 µmol in data set [3] (subject 3, Baseline). The total urinary excretion in data set [3] (subject 4, 0-8 h after consumption) is 7.98 µmol; in data set [3] (subject 4, Baseline), 0.70 µmol; in data set [3] (subject 5, 0-8 h after consumption), 25.45 µmol; in data set [3] (subject 5, Baseline), 10.19 µmol; in data set [3] (subject 6, Baseline), 10.57 µmol; in data set [3] (subject 7, 0-8 h after consumption), 14.03 µmol. Also, the total urinary excretion in data set [3] (subject 7, Baseline) stood at 0.25 µmol; in data set [3] (subject 8, 0-8 h after consumption) it was 68.21 µmol; in data set [3] (subject 8, Baseline), 6.79 µmol; in data set [3] (subject 9, 0-8 h after consumption), 57.69 µmol; in data set [3] (subject 9, Baseline) it was 1.68 µmol; in data set [3] (subject 10, 0-8 h after consumption) it was 112.22 µmol. Further, the total urinary excretion in data set [3] (subject 10, Baseline) was found to be 25.25 µmol.

Consider `COc1ccc(/C=C/C(=O)O)cc1O` [Isoferulic acid], for which, in data set [2], the “contribution to total phenolics in plasma” value came out at 6.1%. The Cmax in data set [2] (both sexes, human, po, 400 mg) was 900 ± 200 nM. Besides, the AUC in data set [2] (setting [4]) is 3.5 ± 1.9 µM·h. Further, the Tmax in data set [2] (setting [5]) is 2.9 ± 1.8 h.

Consider `O=C(O)c1ccc(O)c(O)c1` [Protocatechuic acid], for which, in data set [3] (human, in vivo), the identification in urine result is “not identified”.

Take `O=C(O)c1ccccc1` [benzoic acid]: the identification in urine entry in data set [3] (before or after the extract consumption) was “not identified”.

As to `COc1cc(CCC(=O)O)ccc1O` [dihydroferulic acid], the identification in urine result in data set [3] (human, in vivo) is reported as “not identified”.

Turning to `O=C(O)CNC(=O)c1ccccc1` [hippuric acid], in data set [3] (human, in vivo), the identification in urine entry is recorded as “not identified”.

As for `O=C(O)/C=C/c1ccc(O)cc1` [p-coumaric acid], the “contribution to total phenolics in plasma” value in data set [2] was determined as 1.4%. In addition, in data set [2] (both sexes, human, po, 400 mg), the Cmax worked out at 400 ± 30 nM. Also, the AUC in data set [2] (setting [4]) turned out to be 0.8 ± 0.2 µM·h. Further, in data set [2] (setting [5]), the time to peak (Tmax) was determined as 2.5 ± 1.8 h.
